Data as given in patent US12310975B2, “Modulators of BCL6 proteolysis and associated methods of use” (Arvinas Operations, Inc., priority 2019, dated 2025).
pIC50: −log10 of the molar value.

Columns and labels:
BCL6 [1] = biological target: T1, BCL6 (Homo sapiens (Human), UniProt P41182); assay: BCL6 TR-FRET assay (BCL6-Avitag-Biotin / BCoR-Cy5 peptide); format: binding; details: for pIC50: read-out: IC50; for IC50: class symbols A-D, read-out: IC50 (nM)***
Procedure, shortened: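 After 30 min room-temperature preincubation of compound titrations with 2 nM biotinylated BCL6-Avitag, 100 nM Cy5-labelled BCoR peptide plus 2 nM Eu-streptavidin were added and TR-FRET read 2 h later. HEPES pH 7.5/125 mM NaCl buffer with Triton X, glutathione (or DTT) and BSA.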

BCL6 [2] = biological target: T1, BCL6; assay: Immunofluorescence high content imaging of BCL6 degradation in T47D cells; format: cell-based; details: for Dmax: T47D; for DC50: class symbols A-D, read-out: EC50 (nM)*
Procedure, shortened: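 T47D, 3 d compound exposure, 11-pt 3-fold series, top 0.1 or 1 μM final. Fix 4% PFA, Triton permeabilize, anti-BCL6 primary overnight 4 °C, Alexa-488 secondary. High-content imaging 10×, 4 fields/well, top-hat smoothing.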

Row | pIC50 (BCL6 [1]) | Dmax (BCL6 [2]) | EC50 (BCL6 [1]) | IC50 (BCL6 [2]) | IC50 (BCL6 [1]) | Dmax (BCL6 [2]; maximum, class symbols A-C) | DC50 (BCL6 [2]) | Structure (SMILES)
1 | > 8.00 | 50 to 70% | – | – | – | – | – | CNC(=O)COc1cc2cc(Nc3nc(N4CCC(CN5CCC6(CC5)CCN(c5ccc7c(c5)C(=O)N(C5CCC(=O)NC5=O)C7=O)CC6)CC4)ncc3Cl)ccc2n(C(C)C)c1=O (stereo not drawn) [compound 495, 2-{[6-({5-chloro-2-[4-({9-[2-(2,6-dioxopiperidin-3-yl)-1,3-dioxo-2,3-dihydro-1H-isoindol-5-yl]-3,9-diazaspiro[5.5]undecan-3-yl}methyl)piperidin-1-yl]pyrimidin-4-yl}amino)-2-oxo-1-(propan-2-yl)-1,2-dihydroquinolin-3-yl]oxy}-N-methylacetamide]
2 | – | 50 to 70% | 10 to 50 nM | 10 to 50 nM | – | – | – | CNC(=O)COc1cc2cc(Nc3nc(N4CCN(CC(C)(C)N5CCN(c6ccc7c(c6)C(=O)N(C6CCC(=O)NC6=O)C7=O)CC5)CC4)ncc3Cl)ccc2n(C)c1=O (stereo not drawn) [compound 280, 2-{[6-({5-chloro-2-[4-(2-{4-[2-(2,6-dioxopiperidin-3-yl)-1,3-dioxo-2,3-dihydro-1H-isoindol-5-yl]piperazin-1-yl}-2-methylpropyl)piperazin-1-yl]pyrimidin-4-yl}amino)-1-methyl-2-oxo-1,2-dihydroquinolin-3-yl]oxy}-N-methylacetamide]
3 | > 8.00 | 50 to 70% | – | – | – | – | – | CNC(=O)COc1cc2cc(Nc3nc(N4CCC(OC5CN(C6CCN(c7ccc8c(c7)C(=O)N(C7CCC(=O)NC7=O)C8=O)CC6)C5)CC4)ncc3Cl)ccc2n(C(C)C)c1=O (stereo not drawn) [compound 526, 2-({6-[(5-chloro-2-{4-[(1-{1-[2-(2,6-dioxopiperidin-3-yl)-1,3-dioxo-2,3-dihydro-1H-isoindol-5-yl]piperidin-4-yl}azetidin-3-yl)oxy]piperidin-1-yl}pyrimidin-4-yl)amino]-2-oxo-1-(propan-2-yl)-1,2-dihydroquinolin-3-yl}oxy)-N-methylacetamide]
4 | – | < 50% | 10 to 50 nM | 50 to 100 nM | – | – | – | CNC(=O)COc1cc2cc(Nc3nc(N4CCOC(COc5cccc6c5C(=O)N(C5CCC(=O)NC5=O)C6=O)C4)ncc3Cl)ccc2n(C)c1=O (stereo not drawn) [compound 226, 2-((6-((5-chloro-2-(2-(((2-(2,6-dioxopiperidin-3-yl)-1,3-dioxoisoindolin-4-yl)oxy)methyl)morpholino)pyrimidin-4-yl)amino)-1-methyl-2-oxo-1,2-dihydroquinolin-3-yl)oxy)-N-methylacetamide]
5 | > 8.00 | ≥ 70% | – | – | – | – | – | CNC(=O)COc1cc2cc(Nc3nc(N4CC5(CCN(CC6CCN(c7cccc8c7C(=O)N(C7CCC(=O)NC7=O)C8=O)CC6)C5)C4)ncc3Cl)ccc2n(C(C)C)c1=O (stereo not drawn) [compound 511, 2-{[6-({5-chloro-2-[6-({1-[2-(2,6-dioxopiperidin-3-yl)-1,3-dioxo-2,3-dihydro-1H-isoindol-4-yl]piperidin-4-yl}methyl)-2,6-diazaspiro[3.4]octan-2-yl]pyrimidin-4-yl}amino)-2-oxo-1-(propan-2-yl)-1,2-dihydroquinolin-3-yl]oxy}-N-methylacetamide]
6 | > 8.00 | 50 to 70% | – | – | – | – | – | CNC(=O)COc1cc2cc(Nc3nc(N4CCC(N5CCC6(CCN(c7ccc8c(c7)C(=O)N(C7CCC(=O)NC7=O)C8=O)CC6)C5)CC4)ncc3Cl)ccc2n(C(C)C)c1=O (stereo not drawn) [compound 521, 2-[(6-{[5-chloro-2-(4-{8-[2-(2,6-dioxopiperidin-3-yl)-1,3-dioxo-2,3-dihydro-1H-isoindol-5-yl]-2,8-diazaspiro[4.5]decan-2-yl}piperidin-1-yl)pyrimidin-4-yl]amino}-2-oxo-1-(propan-2-yl)-1,2-dihydroquinolin-3-yl)oxy]-N-methylacetamide]
7 | – | – | 50 to 100 nM | ≥ 100 nM | – | – | – | CNC(=O)COc1cc2cc(Nc3nc(N4CCN(C)C(COc5cccc6c5C(=O)N(C5CCC(=O)NC5=O)C6=O)C4)ncc3Cl)ccc2n(C)c1=O (stereo not drawn) [compound 231, 2-((6-((5-chloro-2-(3-(((2-(2,6-dioxopiperidin-3-yl)-1,3-dioxoisoindolin-4-yl)oxy)methyl)-4-methylpiperazin-1-yl)pyrimidin-4-yl)amino)-1-methyl-2-oxo-1,2-dihydroquinolin-3-yl)oxy)-N-methylacetamide]
8 | – | ≥ 70% | > 100 nM | < 10 nM | – | – | – | CNC(=O)COc1cc2cc(Nc3nc(N4CCN(C(C)(C)C5CCN(c6ccc7c(c6)C(=O)N(C6CCC(=O)NC6=O)C7=O)CC5)CC4)ncc3Cl)ccc2n(C)c1=O (stereo not drawn) [compound 203, 2-((6-((5-chloro-2-(4-(2-(1-(2-(2,6-dioxopiperidin-3-yl)-1,3-dioxoisoindolin-5-yl)piperidin-4-yl)propan-2-yl)piperazin-1-yl)pyrimidin-4-yl)amino)-1-methyl-2-oxo-1,2-dihydroquinolin-3-yl)oxy)-N-methylacetamide]
9 | > 8.00 | 50 to 70% | – | – | – | – | – | CNC(=O)COc1cc2cc(Nc3nc(N4CCC5(CC4)CC(CN4CCN(c6ccc7c(c6)C(=O)N(C6CCC(=O)NC6=O)C7=O)CC4)C5)ncc3Cl)ccc2n(C(C)C)c1=O (stereo not drawn) [compound 483, 2-{[6-({5-chloro-2-[2-({4-[2-(2,6-dioxopiperidin-3-yl)-1,3-dioxo-2,3-dihydro-1H-isoindol-5-yl]piperazin-1-yl}methyl)-7-azaspiro[3.5]nonan-7-yl]pyrimidin-4-yl}amino)-2-oxo-1-(propan-2-yl)-1,2-dihydroquinolin-3-yl]oxy}-N-methylacetamide]
10 | – | – | > 100 nM | ≥ 100 nM | – | – | – | Cn1c(=O)c(-n2ccnc2)cc2cc(Nc3nc(N4CCC(CN5CCN(c6ccc7c(c6)C(=O)N(C6CCC(=O)NC6=O)C7=O)CC5)CC4)ncc3Cl)ccc21 (stereo not drawn) [compound 224, 5-(4-((1-(4-((3-(1H-imidazol-1-yl)-1-methyl-2-oxo-1,2-dihydroquinolin-6-yl)amino)-5-chloropyrimidin-2-yl)piperidin-4-yl)methyl)piperazin-1-yl)-2-(2,6-dioxopiperidin-3-yl)isoindoline-1,3-dione]
11 | > 8.00 | 50 to 70% | – | – | – | – | – | CNC(=O)COc1cc2cc(Nc3nc(N4CCC(CN5CCC6(CCN(c7ccc8c(c7)C(=O)N(C7CCC(=O)NC7=O)C8=O)CC6)C5)CC4)ncc3Cl)ccc2n(C(C)C)c1=O (stereo not drawn) [compound 494, 2-{[6-({5-chloro-2-[4-({8-[2-(2,6-dioxopiperidin-3-yl)-1,3-dioxo-2,3-dihydro-1H-isoindol-5-yl]-2,8-diazaspiro[4.5]decan-2-yl}methyl)piperidin-1-yl]pyrimidin-4-yl}amino)-2-oxo-1-(propan-2-yl)-1,2-dihydroquinolin-3-yl]oxy}-N-methylacetamide]
12 | – | < 50% | 10 to 50 nM | 50 to 100 nM | – | – | – | CNC(=O)COc1cc2cc(Nc3nc(N4CCN(CC5CCN(c6cnc(C(=O)NC7CCC(=O)NC7=O)nc6)CC5)CC4)ncc3Cl)ccc2n(C)c1=O (stereo not drawn) [compound 273, 5-[4-({4-[5-chloro-4-({1-methyl-3-[(methylcarbamoyl)methoxy]-2-oxo-1,2-dihydroquinolin-6-yl}amino)pyrimidin-2-yl]piperazin-1-yl}methyl)piperidin-1-yl]-N-(2,6-dioxopiperidin-3-yl)pyrimidine-2-carboxamide]
13 | – | – | – | – | 10 to 50 nM | 50 to 70% | 10 to 50 nM | CC(=O)COc1cc2cc(Nc3nc(N4CCC(CN5CC6(C5)CN(c5ccc7c(c5)C(=O)N(C5CCC(=O)NC5=O)C7=O)C6)CC4)ncc3Cl)ccc2n(C)c1=O (stereo not drawn) [compound 165, 5-(6-((1-(5-chloro-4-((1-methyl-2-oxo-3-(2-oxopropoxy)-1,2-dihydroquinolin-6-yl)amino)pyrimidin-2-yl)piperidin-4-yl)methyl)-2,6-diazaspiro[3.3]heptan-2-yl)-2-(2,6-dioxopiperidin-3-yl)isoindoline-1,3-dione]
14 | – | < 50% | > 100 nM | 10 to 50 nM | – | – | – | CNC(=O)COc1cc2cc(Nc3nc(N4CCN(CC5CCN(c6ccc(C(=O)NC7CCC(=O)NC7=O)nc6)CC5)CC4)ncc3Cl)ccc2n(C)c1=O (stereo not drawn) [compound 232, 5-(4-((4-(5-chloro-4-((1-methyl-3-(2-(methylamino)-2-oxoethoxy)-2-oxo-1,2-dihydroquinolin-6-yl)amino)pyrimidin-2-yl)piperazin-1-yl)methyl)piperidin-1-yl)-N-(2,6-dioxopiperidin-3-yl)picolinamide]
15 | – | – | – | – | 10 to 50 nM | 50 to 70% | 10 to 50 nM | CC(=O)COc1cc2cc(Nc3nc(N4CCN(C5CCN(c6ccc7c(c6)C(=O)N(C6CCC(=O)NC6=O)C7=O)CC5)CC4)ncc3Cl)ccc2n(C)c1=O (stereo not drawn) [compound 160, 5-(4-(4-(5-chloro-4-((1-methyl-2-oxo-3-(2-oxopropoxy)-1,2-dihydroquinolin-6-yl)amino)pyrimidin-2-yl)piperazin-1-yl)piperidin-1-yl)-2-(2,6-dioxopiperidin-3-yl)isoindoline-1,3-dione]
16 | > 8.00 | ≥ 70% | – | – | – | – | – | CNC(=O)COc1cc2cc(Nc3nc(N4CCN(CC5CCN(c6cccc7c6C(=O)N(C6CCC(=O)NC6=O)C7=O)CC5)CC4)ncc3Cl)ccc2n(CCC2COC2)c1=O (stereo not drawn) [compound 503, 2-{[6-({5-chloro-2-[4-({1-[2-(2,6-dioxopiperidin-3-yl)-1,3-dioxo-2,3-dihydro-1H-isoindol-4-yl]piperidin-4-yl}methyl)piperazin-1-yl]pyrimidin-4-yl}amino)-1-[2-(oxetan-3-yl)ethyl]-2-oxo-1,2-dihydroquinolin-3-yl]oxy}-N-methylacetamide]
17 | – | – | – | – | 50 to 100 nM | 50 to 70% | 10 to 50 nM | CC(=O)COc1cc2cc(Nc3nc(N4CCC(CN5CCN(c6ccc7c(c6)C(=O)N(C6CCC(=O)NC6=O)C7=O)CC5)CC4)ncc3Cl)ccc2n(C)c1=O (stereo not drawn) [compound 152, 5-(4-((1-(5-chloro-4-((1-methyl-2-oxo-3-(2-oxopropoxy)-1,2-dihydroquinolin-6-yl)amino)pyrimidin-2-yl)piperidin-4-yl)methyl)piperazin-1-yl)-2-(2,6-dioxopiperidin-3-yl)isoindoline-1,3-dione]
